Reference: ChEMBL document CHEMBL4002603, “Structure-activity relationship study and discovery of indazole 3-carboxamides as calcium-release activated calcium channel blockers” (Bioorg Med Chem Lett, 2017)
Active and inactive are the calls of the source. The rule behind the calls is not given here.

Columns and labels:
Format in all cases: cell-based
[1] = Inhibition of thapsigargin activated calcium-release activated channel in rat RBL2H3 mast cells assessed as decrease in calcium influx by Fluo-4NW calcium assay
RBL-2H3 = assay: Cytotoxicity against rat RBL2H3 mast cells at 100 uM by CCK8 cell viability assay; details: rbl-2h3, 100 µM
Rattus norvegicus [2] = species: Rattus norvegicus; assay: Inhibition of thapsigargin activated calcium-release activated channel in rat RBL2H3 mast cells assessed as decrease in calcium influx at 100 uM by Fluo-4NW calcium assay
[3] = (§1) Inhibition of thapsigargin activated calcium-release activated channel in rat RBL2H3 mast cells assessed as decrease in nuclear translocation of NFAT-c1 measured 30 mins after extracellular calcium exposure by ELISA; details: RBL-2H3, 0.5 h
Rattus norvegicus [4] = species: Rattus norvegicus; assay: as §1
[5] = (§2) Inhibition of thapsigargin activated calcium-release activated channel in rat RBL2H3 mast cells assessed as decrease in release of beta-hexosaminidase preincubated for 30 mins followed by extracellular calcium addition by ELISA method; details: RBL-2H3
Rattus norvegicus [6] = species: Rattus norvegicus; assay: as §2
Rattus norvegicus [7] = species: Rattus norvegicus; assay: (§3) Inhibition of thapsigargin activated calcium-release activated channel in rat RBL2H3 mast cells assessed as decrease in TNFalpha secretion measured 4 hrs after extracellular calcium exposure by ELISA
Rattus norvegicus [8] = species: Rattus norvegicus; assay: Inhibition of thapsigargin activated calcium-release activated channel in rat RBL2H3 mast cells assessed as decrease in calcium influx at 10 to 100 uM by Fluo-4NW calcium assay
[9] = as §3; details: RBL-2H3, 4 h
Rattus norvegicus [10] = species: Rattus norvegicus; assay: Inhibition of thapsigargin activated calcium-release activated channel in rat RBL2H3 mast cells assessed as decrease in calcium influx at 30 uM by Fluo-4NW calcium assay
[11] = Rattus norvegicus, RBL-2H3, read-out: IC50

SMILES | IC50 [1, 11] [nM] | Activity (RBL-2H3) | also measured
Cc1cc(NC(=O)c2nn(Cc3ccc(Cl)cc3Cl)c3c2CCC3)ccn1 | > 30000 | Non-Toxic | –
Cc1cc(NC(=O)c2nn(Cc3ccc(Cl)cc3Cl)c3c2CCCCC3)ccn1 | > 30000 | Non-Toxic | –
Cc1cc(NC(=O)c2nn(Cc3ccc(Cl)cc3Cl)c3ccccc23)ccn1 | – | Non-Toxic | inhibition (Rattus norvegicus [2]): < 50%
O=C(Nc1nn(Cc2ccc(Cl)cc2Cl)c2ccccc12)c1ccc(F)cc1F | – | Non-Toxic | inhibition (Rattus norvegicus [2]): < 50%
O=C(Nc1ccnc(F)c1)c1nn(Cc2ccc(Cl)cc2Cl)c2ccccc12 | 670 | Non-Toxic | IC50 [3]: 1600 nM; inhibition (Rattus norvegicus [4]): Dose-dependent effect; EC50 [5]: 860 nM; inhibition (Rattus norvegicus [6]): Dose-dependent effect; inhibition (Rattus norvegicus [7]): Dose-dependent effect; inhibition (Rattus norvegicus [8]): Active
O=C(Nc1cc(F)nc(F)c1)c1nn(Cc2ccc(Cl)cc2Cl)c2c1CCCCC2 | 12800 | Non-Toxic | –
O=C(Nc1ccnc(F)c1)c1nn(Cc2ccc(Cl)cc2Cl)c2c1CCCCC2 | – | Non-Toxic | IC50 [1]: Nd(Insoluble)
O=C(Nc1ccnc(F)c1)c1nn(Cc2ccc(Cl)cc2Cl)c2c1CCCC2 | 1530 | Non-Toxic | –
O=C(Nc1c(F)cccc1F)c1nn(Cc2ccc(Cl)cc2Cl)c2ccccc12 | 1510 | Non-Toxic | IC50 [9]: 470 nM; inhibition (Rattus norvegicus [7]): Dose-dependent effect; inhibition (Rattus norvegicus [8]): Active
O=C(Nc1c(F)cccc1Cl)c1nn(Cc2ccc(Cl)cc2Cl)c2ccccc12 | 3230 | Non-Toxic | IC50 [9]: 740 nM; inhibition (Rattus norvegicus [7]): Dose-dependent effect; inhibition (Rattus norvegicus [8]): Active
O=C(Nc1nn(Cc2ccc(Cl)cc2Cl)c2ccccc12)c1ccccc1F | 29000 | Non-Toxic | inhibition (Rattus norvegicus [8]): Active
Cc1nnsc1C(=O)Nc1nn(Cc2ccc(Cl)cc2Cl)c2ccccc12 | > 30000 | Non-Toxic | inhibition (Rattus norvegicus [10]): 44 to 48%
O=C(Nc1ccccc1F)c1nn(Cc2ccc(Cl)cc2Cl)c2ccccc12 | > 30000 | Non-Toxic | IC50 [9]: 280 nM; inhibition (Rattus norvegicus [7]): Dose-dependent effect; inhibition (Rattus norvegicus [10]): 44 to 48%
O=C(Nc1cc(F)nc(F)c1)c1nn(Cc2ccc(Cl)cc2Cl)c2c1CCCC2 | 1340 | Non-Toxic | –
Cc1cc(NC(=O)c2nn(Cc3ccc(Cl)cc3Cl)c3c2CCCC3)ccn1 | – | Non-Toxic | IC50 [1]: Nd(Insoluble)
O=C(Nc1cc(F)nc(F)c1)c1nn(Cc2ccc(Cl)cc2Cl)c2ccccc12 | > 30000 | Non-Toxic | inhibition (Rattus norvegicus [10]): 46%
O=C(Nc1nn(Cc2ccc(Cl)cc2Cl)c2ccccc12)c1c(F)cccc1F | – | Non-Toxic | inhibition (Rattus norvegicus [2]): < 50%
O=C(Nc1nn(Cc2ccc(Cl)cc2Cl)c2ccccc12)c1ccnc(F)c1 | – | Non-Toxic | inhibition (Rattus norvegicus [2]): < 50%
O=C(Nc1nn(Cc2ccc(Cl)cc2Cl)c2ccccc12)c1cc(F)nc(F)c1 | – | Non-Toxic | inhibition (Rattus norvegicus [2]): < 50%
O=C(Nc1cc(F)nc(F)c1)c1nn(Cc2ccc(Cl)cc2Cl)c2c1CCC2 | 650 | Non-Toxic | –
O=C(Nc1cnns1)c1nn(Cc2ccc(Cl)cc2Cl)c2ccccc12 | – | Non-Toxic | inhibition (Rattus norvegicus [2]): < 50%
O=C(Nc1ccnc(F)c1)c1nn(Cc2ccc(Cl)cc2Cl)c2c1CCC2 | 990 | Non-Toxic | –
O=C(Nc1ccc(F)cc1F)c1nn(Cc2ccc(Cl)cc2Cl)c2ccccc12 | 2330 | Non-Toxic | inhibition (Rattus norvegicus [8]): Active
Cc1cc(C(=O)Nc2nn(Cc3ccc(Cl)cc3Cl)c3ccccc23)ccn1 | > 30000 | Non-Toxic | inhibition (Rattus norvegicus [10]): 44 to 48%
